The target in this assay is T1, Interleukin-1 receptor-associated kinase 4 (Homo sapiens, UniProt Q9NWZ3).
T1 sequence (Q9NWZ3 whole entry): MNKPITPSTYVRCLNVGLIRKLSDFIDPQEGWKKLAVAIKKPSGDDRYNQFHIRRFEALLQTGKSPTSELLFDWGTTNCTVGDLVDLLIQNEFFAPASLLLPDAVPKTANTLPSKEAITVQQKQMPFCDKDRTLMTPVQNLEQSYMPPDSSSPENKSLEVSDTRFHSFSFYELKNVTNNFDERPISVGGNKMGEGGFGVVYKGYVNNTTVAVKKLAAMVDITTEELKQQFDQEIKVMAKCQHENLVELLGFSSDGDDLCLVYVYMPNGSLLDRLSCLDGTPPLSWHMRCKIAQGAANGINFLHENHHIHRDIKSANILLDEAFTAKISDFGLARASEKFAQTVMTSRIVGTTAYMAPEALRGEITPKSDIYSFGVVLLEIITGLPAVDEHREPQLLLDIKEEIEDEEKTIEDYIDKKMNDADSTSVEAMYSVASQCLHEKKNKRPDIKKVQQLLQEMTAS
Put plainly: Inhibition of recombinant human full-length His-tagged IRAK4 expressed in baculovirus infected insect cells using KKARFSRFAGSSPSQSSMVAR as substrate preincubated for 15 mins followed by substrate addition and measured after 2 hrs by LC-MS/MS analysis.

pIC50: −log10 of the molar value.

One may read the pIC50 as −log10 of the IC50, conventionally taken in molar units. With `COc1cc2nn([C@H]3CC[C@@]4(CC3)CC(=O)N(C)C4)cc2cc1C(=O)Nc1cnc2cccnn12`, the pIC50 is 9.70.

On to `COc1cc2nn([C@H]3CC[C@H](N(C)C(=O)[C@@H](C)O)CC3)cc2cc1C(=O)Nc1cnc2cccnn12`, for which the pIC50 was 9.70.

For the compound `CO[C@H]1C[C@H](Oc2cc3nn(C4CCC5(CC4)CN(C(C)=O)C5)cc3cc2C(=O)Nc2cnc3cccnn23)C1`, the pIC50 was greater than 10.52.

For the origin of these results see ChEMBL document CHEMBL5137104, “Novel IRAK4 Inhibitors for Treating Asthma” (ACS Med Chem Lett, 2022).
